Measured values from patent US6833383B2, “Methods for treating patients suffering from drug dependencies which lead to plasma melatonin deficiencies” (Neurim Pharmaceuticals (1991) Ltd., priority 1995, dated 2004).

Key:
Benzodiazepine receptors = assay: 3H-flunitrazepam and 3H-RO 15-1788 binding to crude synaptosomal pellets of brains of rats treated for 21 days; assay type: in vivo, rat
Procedure: (§1) 20 male rats, maintained on a daily 14 hour light/10 hour darkness schedule, were divided into 4 groups, each consisting of 5 members:
(§2) Group 1 (the control group): rats were injected daily with 200 μl saline intraperitoneally for 21 days and were allowed to drink tap water.
(§3) They also were provided with regular tap water.
(§4) Group 3 (the melatonin group): rats were injected daily with 200 μl saline intraperitoneally. Their only available drinking water contained 0.4% by weight melatonin.
(§5) Each group was allowed food and water ad libitum. After 21 days the treatment was stopped. The animals were decapitated between 6:00 and 7:00 p.m. the next day, their brains were rapidly removed and crude synaptosomal pellets were prepared, and melatonin receptors were assessed using 2-^125I-melatonin, as described by Laudon, M., and N. Zisapel, FEBS Lett. 197:9 (1986). Benzodiazepine receptors were assessed by measuring the binding of radioactive benzodiazepine receptor probes ^3H-flunitrazepam (^3H-FNZ) and ^3H-RO 15-1788 as described by Amiri, Z. et al. Brain Res. 553:155 (1991). Binding parameters were calculated from the equilibrium binding data. […] Binding parameters of the various groups were compared by analysis of variance followed by Student-Newman-Keul's test for multiple comparison. Differences were considered significant if P<0.05.

[1] = long term melatonin in two insomnia patients dependent upon flunitrazepam; assay type: in vivo, human
Procedure: Two volunteers, […], a person, and […], a person, had each suffered for a number of years from insomnia and/or frequent awakenings during the night accompanied by difficulty in falling asleep again. […] Both patients had been taking 1-2 mg of flunitrazepam orally prior to retiring each evening.
Each patient was weaned off of the flunitrazepam via gradual reduction and simultaneous administration of melatonin over a two month period. During this time, each patient received 2 mg melatonin in controlled release form daily. Since the end of that two month period, each patient has been taking 2 mg oral controlled release melatonin for almost two years.
[…] Each patient also reported reduced fatigue during the daytime within several days after the beginning of the weaning period.

[2] = urinary 6-sulfatoxymelatonin in benzodiazepine-dependent patient after melatonin therapy; assay type: in vivo, human; conditions: for Urinary 6-sulfatoxymelatonin after treatment: 2 weeks after stopping 1 mg controlled release melatonin daily
Procedure: (§6) The quality of sleep was assessed by an actigraph tracing which automatically monitors the bedtime sleep-wake pattern through a small device attached to the hand. […] Urine was collected every three hours for 36 hours and assayed for the diurnal secretion of […] melatonin.
(§7) Oral administration of a controlled release melatonin formulation in the form of tablets containing 1 mg melatonin (Neurim Pharmaceuticals, Israel) (made in accordance with the procedures set forth in example 1 for tablet SR-A) was initiated in order to correct for the deficiency and distortion of the melatonin rhythm. One tablet was administered daily at 8:30 p.m. The patient was asked to gradually reduce the number of benzodiazepine tablets taken each night.
(§8) The treatment was stopped and 2 weeks afterwards the patient's urine was collected again every three hours over a 36 hour period and assayed for 6-sulfatoxymelatonin. […] A three month follow-up confirmed that the patient maintained their quality of sleep and hardly suffered from headaches. After 6 months without treatment the patient's sleep quality began to deteriorate and melatonin therapy was resumed. The therapy restored their sleep quality and the patient continues to take 3 mg melatonin daily.

[3] = case study: withdrawal from benzodiazepine tolerance and sleep in a patient; assay type: in vivo, human
Source text: This example illustrates the action of melatonin in facilitating rapid withdrawal from benzodiazepine tolerance. A person, married with two children, had been suffering from sleep onset insomnia for 10 years, accompanied by frequent and severe migraine attacks. A thorough neurological assessment was negative. Psychiatric or other organic problems also were ruled out.
The patient had been treated with benzodiazepines, tricyclic antidepressants and neuroleptic drugs, as well as biofeedback and relaxation methods with no apparent relief throughout the 10 year period. For the last year, they had been taking 4-8 mg Lorazepam every night, taking a 0.5 mg tablet every half hour or hour throughout the night. This led to difficulties when the patient arose in the morning; they would feel heavily sedated and had problems functioning at work, especially when under pressure. They began to feel that they were losing their memory and ability to concentrate.
as §6, §7, §8

melatonin receptors = assay: 2-125I-melatonin binding to crude synaptosomal pellets of brains of rats treated for 21 days; assay type: in vivo, rat; conditions: 21 days treatment
Procedure: as §1, §2, §3, §4, §5

[4] = cerebral cortex, 21 days treatment
[5] = 2 mg controlled release melatonin daily, patients
[6] = 1 mg controlled release melatonin tablet daily

For `CN1C(=O)CN=C(c2ccccc2)c2cc(Cl)ccc21` [diazepam], which “effect on RO 15-1788 and flunitrazepam binding sites” value (Benzodiazepine receptors; [4]) is on record?
The value was “did not significantly affect”.

And the “effect on the melatonin-mediated decrease in specific binding” value (Benzodiazepine receptors; cerebral cortex, diazepam given together with melatonin)?
The value was “prevented”.

What does the source list for `COc1ccc2[nH]cc(CCNC(C)=O)c2c1` [melatonin]?
sleep inducement (subjective report) [1, 5]: good; sleep quality (subjective report) [1, 5]: substantial improvement; residual tiredness in the morning or hangover feeling ([1]; 2 mg oral controlled release melatonin): has not caused any; side effects reported ([1]; 2 mg oral controlled release melatonin for almost two years): No side effects; fatigue during the daytime ([1]; within several days after the beginning of the weaning period): reduced; urinary 6-sulfatoxymelatonin, change after therapy ([2]; 2 weeks after treatment was stopped, urine every three hours over 36 hours): increase in amount and a clear nocturnal peak; Urinary 6-sulfatoxymelatonin after treatment ([2]; time 3.00): 0.74 µg/h; Urinary 6-sulfatoxymelatonin after treatment ([2]; time 6.00): 0.36 µg/h; Urinary 6-sulfatoxymelatonin after treatment ([2]; time 9.00): 0.21 µg/h; Urinary 6-sulfatoxymelatonin after treatment ([2]; time 12.00): 0.01 µg/h; Urinary 6-sulfatoxymelatonin after treatment ([2]; time 15.00 (first)): 0.11 µg/h; Urinary 6-sulfatoxymelatonin after treatment ([2]; time 15.00 (second)): 0.04 µg/h; Urinary 6-sulfatoxymelatonin after treatment ([2]; time 18.00): 0.45 µg/h; Urinary 6-sulfatoxymelatonin after treatment ([2]; time 21.00): 0.11 µg/h; Urinary 6-sulfatoxymelatonin after treatment ([2]; time 24.00): 1.24 µg/h; headaches (patient's report) [3, 6]: subsided gradually; insomnia (patient's claim) [3, 6]: improved remarkably; time until the patient stopped using the benzodiazepine hypnotics altogether ([3]; 1 mg controlled release melatonin tablet daily at 8:30 p.m., patient on 4-8 mg Lorazepam nightly): ≤ 2 days; sleep pattern, repeated actigraph tracing ([3]; after 3 weeks of melatonin treatment): marked improvement; sleep quality after melatonin therapy was resumed ([3]; resumed after 6 months without treatment): restored; binding of melatonin compared with the control group (melatonin receptors): no difference; reduction in specific binding of tritiated RO 15-1788 compared with the control group (Benzodiazepine receptors; [4]): 20%; reduction in specific binding of tritiated flunitrazepam compared with the control group (Benzodiazepine receptors; [4]): 20%; maximal binding (Bmax) of the RO-15-1788 binding sites (Benzodiazepine receptors; medulla-pons, 21 days treatment): significantly increased
